Here are results for five molecules from PMC8264259, “A Novel Ruthenium(II) Complex With Lapachol Induces G2/M Phase Arrest Through Aurora-B Kinase Down-Regulation and ROS-Mediated Apoptosis in Human Prostate Adenocarcinoma Cells” (Frontiers in Oncology, 2021).

Data set [1] relates to A-375 (human malignant melanoma). Nature of the data set: Alamar blue cytotoxicity assay, A-375. It counts as cell-based. Particulars: for IC50: A-375, Alamar blue, 24-h incubation, mean ± S.E.M. From the text:
(§1) Human lung carcinoma (A549, ATCC® CCL-185™), human hepatocellular carcinoma (HepG2, ATCC® HB-8065™), and human breast adenocarcinoma (MDA-MB-231, ATCC® HTB-26™) were obtained from American Type Cell Collection (ATCC). Human melanoma (A-375, BCRJ-0278), Human colorectal adenocarcinoma (Caco-2, BCRJ 0059), human prostate adenocarcinoma (DU-145, BCRJ-0078, and PC-3, BCRJ-0269), human mouth fibroblast (FGH, BCRJ-0089), and human prostate epithelial cells (PNT-2, BCRJ-0366) were obtained from Rio de Janeiro Cells Bank (BCRJ). The cells A549, A-375, Caco-2, DU-145, HepG2, MDA-MB-231, and FGH were cultured in Dulbecco’s Modified Eagle’s Medium (DMEM, Gibco-Invitrogen®), PC-3 and PNT-2 cells were grown in Roswell Park Memorial Institute Medium (RPMI-1640, Gibco-Invitrogen®). Both mediums were supplemented according to the needs of each lineage, as recommended by its cell banks with 2 mM L-glutamine (Gibco-Invitrogen®), 10% or 20% fetal bovine serum (Gibco-Invitrogen®), 1% antibiotic-antimycotic solution (5 mg/ml penicillin, 5 mg/ml streptomycin, and 10 mg/ml neomycin, Gibco-Invitrogen®), and 3.7 g/L of NaHCO3 (Sigma-Aldrich). All cell lines were cultured in flasks at 37°C in 5% CO2 and 96% of relative humidity according to the procedures proposed by ([31]), and a mycoplasma stain kit (Sigma-Aldrich) was used to confirm the use of cells devoid of contamination. The assays were conducted between the third and the seventh-cell passage with sub-cultures every 3 to 4 days to maintain exponential growth. The cell viability was checked using the trypan blue dye exclusion assay for all experiments where over 95% of the cells were viable at the beginning of the tests.
(§2) The in vitro antiproliferative activity was quantified using the Alamar blue® assay, according to the method reported by ([32]). Cells were seeded in 96-well plates for all experiments (1.5 × 10^4 cells/well). After 24 h, the complexes were dissolved in DMSO and added to each well and incubated for 24 h. Dilutions of the complexes were prepared to obtain concentrations ranging from 0.3 to 100 μM. […] DMSO (0.1% v/v) was used as the vehicle control. Following 24 h of incubation, 50 μl of Alamar blue® (resazurin at 0.01% w/v, Sigma-Aldrich) was added to each well, and the plates were incubated, at 37°C, in the dark. Fluorescence reading was performed in a Synergy H1 Fluorescence Spectrophotometer (BioTek®), using excitation and emission filters at wavelengths of 560 and 590 nm, respectively. The fluorescence intensity was measured in arbitrary fluorescence units (AFU) and the AFU of untreated cells (CTL) was considered 100%. The cytotoxic effects of the compounds were estimated in terms of cell proliferation inhibition (%) and expressed as half-maximal inhibitory concentration (IC50). The cell proliferation inhibition percentage of cells exposed to treatments was calculated following: % Inhibition = 100 − (AFU of treated well/AFU of control well) × 100). The IC50 values were calculated from the cell proliferation inhibition percentage by nonlinear regression method using CompusSyn® Software.
(In general: Alamar Blue is a resazurin reagent that responds to reducing activity.)

Data set [2] deals with A549 (human lung carcinoma). Nature of the data set: Alamar blue cytotoxicity assay, A549. It counts as cell-based. The conditions noted are these: for IC50: A549, Alamar blue, 24-h incubation, mean ± S.E.M.
Description: as §1, §2

In data set [3] the test system is DU-145 (human prostate adenocarcinoma). Nature of the data set: Alamar blue cytotoxicity assay, DU-145. It counts as cell-based. Particulars: for IC50: DU-145, Alamar blue, 24-h incubation, mean ± S.E.M.
Description: as §1, §2

For data set [4], the system named is HepG2 (human hepatocellular carcinoma). Put plainly: Alamar blue cytotoxicity assay, HepG2. The conditions noted are these: for IC50: HepG2, Alamar blue, 24-h incubation, mean ± S.E.M. It counts as cell-based.
Description: as §1, §2

Data set [5] has as its system MDA-MB-231 (human breast adenocarcinoma). Nature of the data set: Alamar blue cytotoxicity assay, MDA-MB-231. It counts as cell-based. The conditions noted are these: for IC50: MDA-MB-231, Alamar blue, 24-h incubation, mean ± S.E.M.
Description: as §1, §2

In data set [6] the test system is PC-3 (human prostate adenocarcinoma). Nature of the data set: Alamar blue cytotoxicity assay, PC-3. It counts as cell-based. Particulars: for IC50: PC-3, Alamar blue, 24-h incubation, mean ± S.E.M.
Description: as §1, §2

Data set [7] concerns FGH (human mouth fibroblast). Nature of the data set: Alamar blue cytotoxicity assay, FGH non-cancer cells. It counts as cell-based. Particulars: 24-h incubation, mean ± S.E.M.
Description: as §1, §2

Data set [8] has as its system PNT-2 (human prostate epithelial cells). Nature of the data set: Alamar blue cytotoxicity assay, PNT-2 non-cancer cells. It counts as cell-based. The conditions noted are these: mean ± S.E.M.
Description: as §1, §2

Another data set has as its system DU-145 MCTSs. Put plainly: 3D multicellular tumor spheroids (MCTSs) culture. It counts as cell-based, human. Particulars: 3D spheroids, 24 h, Alamar blue; read-out: IC50 against the DU-145 MCTSs. The method, then:
Multicellular tumor spheroids (MCTSs) were obtained according to the method reported by ([33]). Briefly, 200 μl of a solution of DU-145 cells (2.0 × 10^3 cells/well) were inserted in agarose-coated 96-well plates (1.5% w/v) and cultured in complete medium plus 3% Matrigel® (Corning). DU-145-MCTSs with stable structures had formed after five days. […] Negative control received the vehicle (DMSO 0.1% v/v) that was used for diluting the compounds tested. Finally, the MCTS proliferation inhibition (%) and IC50 were determined by Alamar blue® assay as described above. To investigate morphological changes other MCTSs were treated with 0.25, 0.5, 1.0, 1.5, and 2.0 μM of complex (2) and examined for 7 days. Spheroid integrity and diameter of MCTSs were analyzed by phase-contrast microscopy (Inverted Trinocular Microscope Opton TNB-O5T-PL) using AxioVision LE software (Carl Zeiss, Germany).

In data set [9] the test system is DU-145 cells. Nature of the data set: Clonogenic assay. It counts as cell-based, human. The conditions noted are these: 24 h treatment, colonies after 7 days. The method, then: The clonogenic assay was performed in accordance with the guidelines of ([34]). […] DMSO (0.1% v/v) was used as the vehicle control. After 24 h, the cells were washed with PBS (Gibco-Invitrogen®) and harvested by trypsinization. Cells were counted using a Neubauer chamber and replated then on cell culture dishes of 21.5 cm^2 in a density of 200 cells per culture dish for each treatment in triplicate. After 7 days, cells were fixed in ice-cold methanol: acetic acid: distilled water (1:1:8), air-dried, and stained with crystal violet (0.5% w/v, Sigma-Aldrich) for 20 min. Colonies with at least 50 cells were counted. Plating efficiency (PE) of DU-145 cells was calculated by the ratio of the number of colonies observed after 7 days of incubation to the number of cells seeded (two hundred). The average of colonies in control was considered as 100%, and the number of colonies that arise after treatment of cells is called the surviving fraction (SF), obtained by:
SF = Numberofcoloniescountedineachtreatment/Numberofcoloniescountedincontrol x PE × 100

Data set [10] relates to DU-145 cells. Put plainly: Annexin-V/PI staining assay (flow cytometry). It counts as cell-based, human. The conditions noted are these: DU-145, 25 μM (~IC50), 24 h. The protocol: The measurement of cell death was performed by the guidelines of ([35]). Detection of apoptotic/necrotic cells was determined by flow cytometry using the Alexa Fluor® 488 Annexin V/PI (Thermo Fischer Scientific), and the analyses were performed according to the manufacturer’s instructions. […] DMSO (0.1% v/v) was used as the vehicle control. Following 24 h of incubation, the cells were collected with Accutase® (Gibco-Invitrogen®), washed with PBS and resuspended in 200 μl of cold annexin-binding buffer. Next, 10 μl of Alexa Fluor® was added to Annexin V (50 μl/ml) staining buffer, and the mixture was incubated in the dark at 4°C for 15 min. Previously, the analyses, 100 μl of PI (2 μg/ml) was added, and then, the fluorescence was measured by flow cytometry in a FACSCanto flow cytometer (BD Biosciences, USA) using the Diva software. Ten thousand events were evaluated per experiment, and cellular debris was omitted from the analysis.
(In general: A flow cytometer gives signals particle by particle.)

In data set [11] the test system is Caco-2 (human colorectal adenocarcinoma). Nature of the data set: Alamar blue cytotoxicity assay, Caco-2. The conditions noted are these: for IC50: Homo sapiens, Caco-2, Alamar blue, 24-h incubation, mean ± S.E.M. It counts as cell-based.
Description: as §1, §2

Details of data set [12]: method as in PMID 30776556. The conditions noted are these: previously tested, not tested in the present work; read-out: IC50 (weak cytotoxicity); cited from earlier work.
Where [13] appears, read: Homo sapiens, PNT2, 24-h incubation.

Where a name gives a salt, the structure may show the parent alone.

As for `N.N.[Cl][Pt][Cl]` [CIS, Cisplatin, reference compound], the IC50 in data set [1] amounted to 16.5 ± 2.3 µM; in data set [2] it was 11.9 ± 0.6 µM; in data set [3], 24.3 ± 1.3 µM; in [4] it was 14.1 ± 0.5 µM; in [5], 22.1 ± 1.7 µM; in [6], 10.8 ± 1.1 µM. In addition, the IC50 stood at 11.4 ± 0.5 µM in data set [7], 9.5 ± 0.3 µM in data set [8] (24-h incubation) and 62.6 µM with DU-145 MCTSs. Moreover, the “survival fraction (SF)” value with DU-145 cells [9] (DU-145, 25 μM) is recorded as 69.1%. Moreover, the “population of apoptotic cells” value with DU-145 cells [10] stood at 19.5%.

As for `COc1cccc2c1C(=O)c1c(O)c3c(c(O)c1C2=O)C[C@@](O)(C(=O)CO)C[C@@H]3O[C@H]1C[C@H](N)[C@H](O)[C@H](C)O1` [DXR, doxorubicin hydrochloride, reference compound], the IC50 in [1] (Homo sapiens) is 3.7 ± 0.6 µM; in data set [2] (Homo sapiens), 1.9 ± 0.4 µM; in [11], 2.1 ± 0.8 µM; in data set [3] (Homo sapiens) it was 2.3 ± 0.5 µM; in data set [4] (Homo sapiens), 2.4 ± 0.8 µM; in [5] (Homo sapiens) it was 2.1 ± 0.7 µM. Moreover, the IC50 in data set [6] (Homo sapiens) amounted to 2.6 ± 0.3 µM; in data set [7] (Homo sapiens, Fibroblast) it was 2.6 ± 0.6 µM; in data set [8] (setting [13]), 3.2 ± 0.5 µM. Further, the “Selectivity index (SI)” value worked out at 0.7 in data set [1] (SI = IC50[FGH]/IC50[A-375]); 0.9 in data set [1] (SI = IC50[PNT-2]/IC50[A-375]); 1.4 in [2] (SI = IC50[FGH]/IC50[A549]); 1.7 in [2] (SI = IC50[PNT-2]/IC50[A549]); 1.2 in data set [11] (SI = IC50[FGH]/IC50[Caco-2]); 1.5 in data set [11] (SI = IC50[PNT-2]/IC50[Caco-2]). Also, the “Selectivity index (SI)” value in data set [3] (SI = IC50[FGH]/IC50[DU-145]) is recorded as 1.1; in data set [3] (SI = IC50[PNT-2]/IC50[DU-145]) it was 1.4; in data set [4] (SI = IC50[FGH]/IC50[HepG2]) it was 1.1; in data set [4] (SI = IC50[PNT-2]/IC50[HepG2]), 1.3; in data set [5] (SI = IC50[FGH]/IC50[MDA-MB-231]) it was 1.2; in data set [5] (SI = IC50[PNT-2]/IC50[MDA-MB-231]), 1.5. Further, the “Selectivity index (SI)” value in data set [6] (SI = IC50[FGH]/IC50[PC-3]) came out at 1.0; in [6] (SI = IC50[PNT-2]/IC50[PC-3]), 1.2. The “survival fraction (SF)” value in the data set on DU-145 cells [9] (DU-145, 2.5 μM) stood at 18.7%.

For the molecule `CC(C)=CCC1=C(O)C(=O)c2ccccc2C1=O` [Lp, 2-hydroxy-3-(3-methylbut-2-en-1-yl)naphthalene-1,4-dione, reference compound], the IC50 in [1] (Homo sapiens), in data set [2] (Homo sapiens), in data set [11], in [3] (Homo sapiens), in data set [4] (Homo sapiens) and in [5] (Homo sapiens) was more than 100 µM throughout. Moreover, the IC50 in [6] (Homo sapiens) was more than 100 µM; in data set [7] (Homo sapiens, Fibroblast) it was more than 100 µM; in data set [8] (setting [13]), more than 100 µM.

For the molecule `[Cl][Ru][Cl].c1ccc(-c2ccccn2)nc1.c1ccc(P(CP(c2ccccc2)c2ccccc2)c2ccccc2)cc1` [cis-[RuCl2(dppm)(bipy)]], the IC50 in [12] is more than 100 µM.

In the case of `[Cl][Ru][Cl].c1ccc(P(CP(c2ccccc2)c2ccccc2)c2ccccc2)cc1.c1cnc2c(c1)ccc1cccnc12` [cis-[RuCl2(dppm)(phen)]], the IC50 in data set [12] was more than 100 µM.

As a reminder, the IC50 is the concentration that gives 50% inhibition.
